This experiment concerns BDF1 mice, Adenocarcinoma 755 s.c., tumor weight T/C. The experiment can be described thus: NCI In Vivo Anticancer Drug Screen. Data for tumor model Adenocarcinoma 755 (subcutaneous) in B6D2F1 (BDF1) mice. The note with it: endpoint: mean tumor weight, higher = larger tumour. The essentials:
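Values express treated (T) relative to vehicle-dosed control (C) animals, based on survival or tumour size measured after compound treatment of mice bearing a transplanted tumour.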

Setting [1] is: dose: 50.0 mg/kg/injection, schedule: Q01DX011 (ip), vehicle: carboxymethylcellulose (CMC).
[2] abbreviates: dose: 60.0 mg/kg/injection, schedule: Q01DX011 (ip), vehicle: carboxymethylcellulose (CMC).
[3] abbreviates: dose: 25.0 mg/kg/injection, schedule: Q01DX011 (ip), vehicle: carboxymethylcellulose (CMC).

Values joined by “and” are separate entries in the source; they are usually repeats but may differ in a detail not shown here. Equal entries are not always repeated.

In general, T/C refers to the ratio of treated to control. On to `CC(=O)O[C@]1(C(C)=O)CC[C@H]2[C@@H]3C[C@H](C)C4=CC(=O)C=C[C@]4(C)[C@@]3(F)[C@@H](O)C[C@@]21C`, for which the T/C is 95 % of control (dose: 4.5 mg/kg/injection, schedule: Q01DX011 (sc), vehicle: steriod suspending solution); 60 % of control (dose: 9.0 mg/kg/injection, schedule: Q01DX011 (sc), vehicle: steriod suspending solution); 54 % of control (dose: 15.0 mg/kg/injection, schedule: Q01DX011 (sc), vehicle: steriod suspending solution); 34 % of control (dose: 18.0 mg/kg/injection, schedule: Q01DX011 (sc), vehicle: steriod suspending solution); 34 % of control (dose: 30.0 mg/kg/injection, schedule: Q01DX011 (sc), vehicle: steriod suspending solution); 19 % of control (dose: 60.0 mg/kg/injection, schedule: Q01DX011 (sc), vehicle: steriod suspending solution). Besides, the T/C reads like this: (dose: 120.0 mg/kg/injection, schedule: Q01DX011 (sc), vehicle: steriod suspending solution) 8 % of control; (dose: 136.0 mg/kg/injection, schedule: Q01DX011 (sc), vehicle: steriod suspending solution) 17 % of control.
Take `CCCCNP(=O)(N1CC1C)N1CC1C` (stereo not drawn): the T/C was 53 % of control (dose: 7.0 mg/kg/injection, schedule: Q01DX011 (ip), vehicle: saline); 53 % of control (dose: 14.0 mg/kg/injection, schedule: Q01DX011 (ip), vehicle: saline); 25 % of control (dose: 28.0 mg/kg/injection, schedule: Q01DX011 (ip), vehicle: saline); 1 % of control (dose: 56.0 mg/kg/injection, schedule: Q01DX011 (ip), vehicle: saline).
In the case of `Cc1cc2c(cc1C)NC(C)CC(=O)N2` (stereo not drawn), the T/C is 89 % of control under setting [1]; 80 % of control (dose: 50.0 mg/kg/injection, schedule: Q01DX011 (ip), vehicle: other); 48 % of control (dose: 100.0 mg/kg/injection, schedule: Q01DX011 (ip), vehicle: other); 84 % of control (dose: 200.0 mg/kg/injection, schedule: Q01DX011 (ip), vehicle: carboxymethylcellulose (CMC)).
Consider `CSc1nc(Cl)cc(NC(=O)CCl)n1`, for which, under setting [2], the T/C is 124 % of control.
With `CC(=O)OCC(=O)[C@@]1(O)CC[C@H]2[C@@H]3C[C@H](C)C4=CC(=O)CC[C@]4(C)[C@H]3[C@@H](O)C[C@@]21C`, the T/C is 73 % of control (dose: 2.75 mg/kg/injection, schedule: Q01DX011 (sc), vehicle: steriod suspending solution); 55 % of control and 71 % of control (dose: 5.5 mg/kg/injection, schedule: Q01DX011 (sc), vehicle: steriod suspending solution); 19 % of control (dose: 22.0 mg/kg/injection, schedule: Q01DX011 (sc), vehicle: water); 42 % of control (dose: 44.0 mg/kg/injection, schedule: Q01DX011 (sc), vehicle: steriod suspending solution); 14 % of control and 20 % of control (dose: 44.0 mg/kg/injection, schedule: Q01DX011 (sc), vehicle: water); 50 % of control (dose: 87.0 mg/kg/injection, schedule: Q01DX011 (sc), vehicle: steriod suspending solution). For the same compound, the T/C by setting is: (dose: 87.5 mg/kg/injection, schedule: Q01DX011 (sc), vehicle: water) 11 % of control and 15 % of control; (dose: 175.0 mg/kg/injection, schedule: Q01DX011 (sc), vehicle: steriod suspending solution) 25 % of control; (dose: 175.0 mg/kg/injection, schedule: Q01DX011 (sc), vehicle: water) 3 % of control and 4 % of control.
For `Cn1c(=O)c2ncn(CC(=O)O)c2n(C)c1=O`, the T/C reads like this: (dose: 30.0 mg/kg/injection, schedule: Q01DX011 (ip), vehicle: carboxymethylcellulose (CMC)) 45 % of control; under setting [2], 156 % of control; (dose: 120.0 mg/kg/injection, schedule: Q01DX011 (ip), vehicle: carboxymethylcellulose (CMC)) 99 % of control; (dose: 240.0 mg/kg/injection, schedule: Q01DX011 (ip), vehicle: carboxymethylcellulose (CMC)) 120 % of control.
With `CC(=O)O[C@]1(C(C)=O)CC[C@H]2[C@@H]3C[C@H](C)C4=CC(=O)CC[C@]4(C)[C@H]3CC[C@@]21C`, the T/C by setting is: (dose: 100.0 mg/kg/injection, schedule: Q01DX011 (sc), vehicle: steriod suspending solution) 89 % of control; (dose: 300.0 mg/kg/injection, schedule: Q01DX011 (sc), vehicle: steriod suspending solution) 78 % of control.
For the compound `CCn1cnc2c(SC3CCCC3)ncnc21`, the T/C runs as follows: (dose: 5.0 mg/kg/injection, schedule: Q01DX011 (ip), vehicle: carboxymethylcellulose (CMC)) 16 % of control; (dose: 7.5 mg/kg/injection, schedule: Q01DX011 (ip), vehicle: carboxymethylcellulose (CMC)) 4 % of control; (dose: 10.0 mg/kg/injection, schedule: Q01DX011 (ip), vehicle: carboxymethylcellulose (CMC)) 3 % of control; under setting [3], 14 % of control.
`[I][Hg][CH2][C@H]1CO[C@H]([CH2][Hg][I])CO1`: the T/C (dose: 6.0 mg/kg/injection, schedule: Q01DX011 (ip), vehicle: carboxymethylcellulose (CMC)) is 95 % of control; the T/C (dose: 12.0 mg/kg/injection, schedule: Q01DX011 (ip), vehicle: carboxymethylcellulose (CMC)) was 46 % of control; the T/C under setting [3] was 32 % of control and 33 % of control; the T/C under setting [1] was 21 % of control.
For the compound `OCC1OC(n2cnc3c(Cl)ncnc32)C(O)C1O` (stereo not drawn), the T/C was 153 % of control (dose: 62.5 mg/kg/injection, schedule: Q01DX011 (ip), vehicle: carboxymethylcellulose (CMC)); 72 % of control (dose: 100.0 mg/kg/injection, schedule: Q01DX011 (ip), vehicle: methylcellulose (MC)); 63 % of control (dose: 125.0 mg/kg/injection, schedule: Q01DX011 (ip), vehicle: carboxymethylcellulose (CMC)); 78 % of control (dose: 200.0 mg/kg/injection, schedule: Q01DX011 (ip), vehicle: methylcellulose (MC)); 55 % of control (dose: 250.0 mg/kg/injection, schedule: Q01DX011 (ip), vehicle: carboxymethylcellulose (CMC)); 90 % of control (dose: 300.0 mg/kg/injection, schedule: Q01DX011 (ip), vehicle: methylcellulose (MC)). The T/C (dose: 400.0 mg/kg/injection, schedule: Q01DX011 (ip), vehicle: methylcellulose (MC)) is 63 % of control; the T/C (dose: 500.0 mg/kg/injection, schedule: Q01DX011 (ip), vehicle: methylcellulose (MC)) was 11 % of control; the T/C (dose: 750.0 mg/kg/injection, schedule: Q01DX011 (ip), vehicle: methylcellulose (MC)) was 4 % of control; the T/C (dose: 1000.0 mg/kg/injection, schedule: Q01DX011 (ip), vehicle: methylcellulose (MC)) was 15 % of control.
With `C[C@]12CC[C@H](OC3OC(CO)C(O)C(O)C3O)C[C@H]1CC[C@@H]1[C@@H]2CC[C@]2(C)[C@@H](C3=CCOC3=O)CC[C@]12O` (stereo partly drawn), the T/C reads like this: (dose: 0.13 mg/kg/injection, schedule: Q01DX011 (ip), vehicle: saline) 34 % of control; (dose: 0.25 mg/kg/injection, schedule: Q01DX011 (ip), vehicle: saline) 35 % of control; (dose: 0.5 mg/kg/injection, schedule: Q01DX011 (ip), vehicle: saline) 22 % of control and 44 % of control; (dose: 1.0 mg/kg/injection, schedule: Q01DX011 (ip), vehicle: saline) 3 % of control.
`C=CC1CN2CCC1CC2C(O)c1ccnc2ccc(OC)cc12` (stereo not drawn): the T/C reads like this: (dose: 28.96 mg/kg/injection, schedule: Q01DX011 (ip), vehicle: carboxymethylcellulose (CMC)) 109 % of control; (dose: 57.93 mg/kg/injection, schedule: Q01DX011 (ip), vehicle: carboxymethylcellulose (CMC)) 121 % of control; (dose: 92.68 mg/kg/injection, schedule: Q01DX011 (ip), vehicle: carboxymethylcellulose (CMC)) 70 % of control; (dose: 115.85 mg/kg/injection, schedule: Q01DX011 (ip), vehicle: carboxymethylcellulose (CMC)) 76 % of control; (dose: 125.0 mg/kg/injection, schedule: Q01DX011 (ip), vehicle: methylcellulose (MC)) 82 % of control; (dose: 154.46 mg/kg/injection, schedule: Q01DX011 (ip), vehicle: carboxymethylcellulose (CMC)) 86 % of control. The T/C (dose: 231.7 mg/kg/injection, schedule: Q01DX011 (ip), vehicle: carboxymethylcellulose (CMC)) was 72 % of control and the T/C (dose: 250.0 mg/kg/injection, schedule: Q01DX011 (ip), vehicle: methylcellulose (MC)) was 91 % of control.
Consider `NC(CCSCc1ccc(N(CCCl)CCCl)cc1)C(=O)O` (stereo not drawn), for which the T/C (dose: 4.5 mg/kg/injection, schedule: Q01DX011 (ip), vehicle: saline) is 99 % of control and 74 % of control; the T/C (dose: 9.0 mg/kg/injection, schedule: Q01DX011 (ip), vehicle: saline) was 43 % of control and 54 % of control; the T/C (dose: 36.0 mg/kg/injection, schedule: Q01DX011 (ip), vehicle: saline) was 29 % of control; the T/C (dose: 54.0 mg/kg/injection, schedule: Q01DX011 (ip), vehicle: saline) was 21 % of control.
Consider `O=S(=O)(OCCCl)OCCCl`, for which the T/C was 109 % of control (dose: 12.5 mg/kg/injection, schedule: Q01DX011 (ip), vehicle: olive oil, sesame oil, peanut oil) and 86 % of control (dose: 25.0 mg/kg/injection, schedule: Q01DX011 (ip), vehicle: olive oil, sesame oil, peanut oil).

The values above are taken from PubChem BioAssay AID180 (DTP/NCI, 2004).
